According to patent US20260070945A1, “MACROCYCLIC IMMUNOMODULATORS” (Bristol-Myers Squibb Company, priority 2022, published 2026):
Where a SMILES comes first, the peptide text is derived from it. Bridges are numbered along the chain shown (N, C = ends). [ ]: non-standard residue; d: D form. The star is where a group is joined. X15 = NCCCC[C@H](NC(=O)CNCCNCCN*)C(=O)NCCCCCCCCCCC(=O)O; Phe(4-COOH) = N[C@@H](Cc1ccc(C(=O)O)cc1)C(=O)O; Bip = N[C@@H](Cc1ccc(-c2ccccc2)cc1)C(=O)O; Phe(3-Me) = Cc1cccc(C[C@H](N)C(=O)O)c1; Cha = N[C@@H](CC1CCCCC1)C(=O)O; Carboxymethyl = O=C(O)C*; NMeA = CN[C@@H](C)C(=O)O; Orn = NCCC[C@H](N)C(=O)O; Aun = NCCCCCCCCCCC(=O)O; Dab = NCC[C@H](N)C(=O)O; Dap = NC[C@H](N)C(=O)O; AEEA = NCCOCCOCC(=O)O

What follows are compounds tested against T1, PD-1/PD-L1 interaction (PE-labeled human PD-L1-Ig binding to Jurkat cell line over-expressing human PD-1) (Homo sapiens, UniProt Q15116) (assay: Jurkat-PD-1 Cell Binding High-Content Screening Assay (CBA)). Details: Jurkat-hPD-1 cells, PE-labeled PD-L1-Ig 20 nM final; read-out: Jurkat HPD1 PDL1 IC50.
T1 construct: expressed in transfected cells; host or cells: Jurkat
In short: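 Cells 8×10^3/well, DMEM + 10% FCS; cpd 2 h, 37 °C; PE–PD-L1-Ig 20 nM final, 1 h; PFA fix + Hoechst 33342, 3× dPBS wash; high-content imager.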

T1 sequence (Q15116 25-288): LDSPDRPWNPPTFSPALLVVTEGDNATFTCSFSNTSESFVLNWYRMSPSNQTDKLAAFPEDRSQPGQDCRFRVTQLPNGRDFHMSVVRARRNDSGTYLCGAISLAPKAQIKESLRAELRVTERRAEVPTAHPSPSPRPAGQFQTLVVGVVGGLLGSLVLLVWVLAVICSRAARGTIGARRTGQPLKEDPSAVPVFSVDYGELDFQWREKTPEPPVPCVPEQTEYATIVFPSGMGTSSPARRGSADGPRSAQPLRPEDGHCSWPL

Row | IC50 [nM] | SMILES
1 | 32.4 | Cc1cccc(C[C@@H]2NC(=O)[C@H](CC(=O)O)NC(=O)[C@H](Cc3ccc(OCC(=O)O)cc3)NC(=O)[C@H](CN)NC(=O)CSC[C@@H](C(=O)NCCNCCNCC(=O)N[C@@H](CCCCN)C(=O)NCCCCCCCCCCC(=O)O)NC(=O)[C@H](CO)NC(=O)[C@H](C(C)C)NC(=O)[C@H](CC(C)C)NC(=O)[C@H](CC(N)=O)NC(=O)[C@@H](CC(C)C)NC(=O)[C@H](C)N(C)C(=O)[C@H](C(C)C)NC(=O)[C@H](Cc3ccc(-c4ccccc4)cc3)NC(=O)[C@H](CC(C)C)NC2=O)c1 [Example 1065] ({CH2CO}-[Dap]Y(Carboxymethyl)D[Phe(3-Me)]L[Bip]V[NMeA][dL]NLVSC-X15; thioether N-14)
2 | 106 | Cc1cccc(C[C@@H]2NC(=O)[C@H](CC(=O)O)NC(=O)[C@H](Cc3ccc(OCC(=O)O)cc3)NC(=O)[C@H](CN)NC(=O)CSC[C@@H](C(=O)N[C@@H](CC(=O)O)C(=O)NCCCCCCCCCCC(=O)O)NC(=O)[C@H](CO)NC(=O)[C@H](C(C)C)NC(=O)[C@H](CC(C)C)NC(=O)[C@H](CC(N)=O)NC(=O)[C@@H](CC(C)C)NC(=O)[C@H](C)N(C)C(=O)[C@H](C(C)C)NC(=O)[C@H](Cc3ccc(-c4ccccc4)cc3)NC(=O)[C@H](CC(C)C)NC2=O)c1 [Example 1067] ({CH2CO}-[Dap]Y(Carboxymethyl)D[Phe(3-Me)]L[Bip]V[NMeA][dL]NLVSCD[Aun]-OH; thioether N-14)
3 | 172 | Cc1cccc(C[C@@H]2NC(=O)[C@H](CC(=O)O)NC(=O)[C@H](Cc3ccc(OCC(=O)O)cc3)NC(=O)[C@H](CN)NC(=O)CSC[C@@H](C(=O)N[C@@H](CCC(=O)O)C(=O)NCCCCCCCCCCC(=O)O)NC(=O)[C@H](CO)NC(=O)[C@H](C(C)C)NC(=O)[C@H](CC(C)C)NC(=O)[C@H](CC(N)=O)NC(=O)[C@@H](CC(C)C)NC(=O)[C@H](C)N(C)C(=O)[C@H](C(C)C)NC(=O)[C@H](Cc3ccc(-c4ccccc4)cc3)NC(=O)[C@H](CC(C)C)NC2=O)c1 [Example 1068] ({CH2CO}-[Dap]Y(Carboxymethyl)D[Phe(3-Me)]L[Bip]V[NMeA][dL]NLVSCE[Aun]-OH; thioether N-14)

Further lines, the compound ahead of its results:

Row | SMILES | IC50 [nM]
4 | CC[C@H](C)[C@@H]1NC(=O)[C@H](Cc2ccc(-c3ccccc3)cc2)NC(=O)[C@H](CC(C)C)NC(=O)[C@H](Cc2c[nH]c3ccccc23)NC(=O)[C@H](CC(=O)O)NC(=O)[C@H](Cc2ccc(C(=O)O)cc2)NC(=O)[C@H](Cc2ccc(OCC(=O)O)cc2)NC(=O)CSC[C@@H](C(=O)NCCOCCOCC(=O)NCCCCCCCCCCC(=O)O)NC(=O)[C@H](CO)NC(=O)[C@H](C(C)C)NC(=O)[C@H](CC2CCCCC2)NC(=O)[C@H](CCN)NC(=O)[C@@H](CC(C)C)NC(=O)[C@H](C)N(C)C1=O [Example 1069] ({CH2CO}-Y(Carboxymethyl)[Phe(4-COOH)]DWL[Bip]I[NMeA][dL][Dab][Cha]VSC[AEEA][Aun]-OH; thioether N-14) | 40.7
5 | CC[C@H](C)[C@@H]1NC(=O)[C@H](Cc2ccc(-c3ccccc3)cc2)NC(=O)[C@H](CC(C)C)NC(=O)[C@H](Cc2c[nH]c3ccccc23)NC(=O)[C@H](CC(=O)O)NC(=O)[C@H](Cc2ccc(C(=O)O)cc2)NC(=O)[C@H](Cc2ccc(OCC(=O)O)cc2)NC(=O)CSC[C@@H](C(=O)N[C@@H](CN)C(=O)NCCCCCCCCCCC(=O)O)NC(=O)[C@H](CO)NC(=O)[C@H](C(C)C)NC(=O)[C@H](CC2CCCCC2)NC(=O)[C@H](CCN)NC(=O)[C@@H](CC(C)C)NC(=O)[C@H](C)N(C)C1=O [Example 1070] ({CH2CO}-Y(Carboxymethyl)[Phe(4-COOH)]DWL[Bip]I[NMeA][dL][Dab][Cha]VSC[Dap][Aun]-OH; thioether N-14) | 39.2
6 | CC[C@H](C)[C@@H]1NC(=O)[C@H](Cc2ccc(-c3ccccc3)cc2)NC(=O)[C@H](CC(C)C)NC(=O)[C@H](Cc2c[nH]c3ccccc23)NC(=O)[C@H](CC(=O)O)NC(=O)[C@H](Cc2ccc(C(=O)O)cc2)NC(=O)[C@H](Cc2ccc(OCC(=O)O)cc2)NC(=O)CSC[C@@H](C(=O)N[C@@H](CCCN)C(=O)NCCCCCCCCCCC(=O)O)NC(=O)[C@H](CO)NC(=O)[C@H](C(C)C)NC(=O)[C@H](CC2CCCCC2)NC(=O)[C@H](CCN)NC(=O)[C@@H](CC(C)C)NC(=O)[C@H](C)N(C)C1=O [Example 1072] ({CH2CO}-Y(Carboxymethyl)[Phe(4-COOH)]DWL[Bip]I[NMeA][dL][Dab][Cha]VSC[Orn][Aun]-OH; thioether N-14) | 18.3
7 | CC[C@H](C)[C@@H]1NC(=O)[C@H](Cc2ccc(-c3ccccc3)cc2)NC(=O)[C@H](CC(C)C)NC(=O)[C@H](Cc2c[nH]c3ccccc23)NC(=O)[C@H](CC(=O)O)NC(=O)[C@H](Cc2ccc(C(=O)O)cc2)NC(=O)[C@H](Cc2ccc(OCC(=O)O)cc2)NC(=O)CSC[C@@H](C(=O)N[C@@H](CCCNC(=N)N)C(=O)NCCCCCCCCCCC(=O)O)NC(=O)[C@H](CO)NC(=O)[C@H](C(C)C)NC(=O)[C@H](CC2CCCCC2)NC(=O)[C@H](CCN)NC(=O)[C@@H](CC(C)C)NC(=O)[C@H](C)N(C)C1=O [Example 1074] ({CH2CO}-Y(Carboxymethyl)[Phe(4-COOH)]DWL[Bip]I[NMeA][dL][Dab][Cha]VSCR[Aun]-OH; thioether N-14) | 43.4
8 | CC[C@H](C)[C@@H]1NC(=O)[C@H](Cc2ccc(-c3ccccc3)cc2)NC(=O)[C@H](CC(C)C)NC(=O)[C@H](Cc2c[nH]c3ccccc23)NC(=O)[C@H](CC(=O)O)NC(=O)[C@H](Cc2ccc(C(=O)O)cc2)NC(=O)[C@H](Cc2ccc(OCC(=O)O)cc2)NC(=O)CSC[C@@H](C(=O)N[C@@H](Cc2c[nH]cn2)C(=O)NCCCCCCCCCCC(=O)O)NC(=O)[C@H](CO)NC(=O)[C@H](C(C)C)NC(=O)[C@H](CC2CCCCC2)NC(=O)[C@H](CCN)NC(=O)[C@@H](CC(C)C)NC(=O)[C@H](C)N(C)C1=O [Example 1075] ({CH2CO}-Y(Carboxymethyl)[Phe(4-COOH)]DWL[Bip]I[NMeA][dL][Dab][Cha]VSCH[Aun]-OH; thioether N-14) | 20.2
9 | CC[C@H](C)[C@@H]1NC(=O)[C@H](Cc2ccc(-c3ccccc3)cc2)NC(=O)[C@H](CC(C)C)NC(=O)[C@H](Cc2c[nH]c3ccccc23)NC(=O)[C@H](CC(=O)O)NC(=O)[C@H](Cc2ccc(C(=O)O)cc2)NC(=O)[C@H](Cc2ccc(OCC(=O)O)cc2)NC(=O)CSC[C@@H](C(=O)N[C@@H](CN)C(=O)NCCOCCOCC(=O)NCCCCCCCCCCC(=O)O)NC(=O)[C@H](CO)NC(=O)[C@H](C(C)C)NC(=O)[C@H](CC2CCCCC2)NC(=O)[C@H](CCN)NC(=O)[C@@H](CC(C)C)NC(=O)[C@H](C)N(C)C1=O [Example 1076] ({CH2CO}-Y(Carboxymethyl)[Phe(4-COOH)]DWL[Bip]I[NMeA][dL][Dab][Cha]VSC[Dap][AEEA][Aun]-OH; thioether N-14) | 16.5
10 | CC[C@H](C)[C@@H]1NC(=O)[C@H](Cc2ccc(-c3ccccc3)cc2)NC(=O)[C@H](CC(C)C)NC(=O)[C@H](Cc2c[nH]c3ccccc23)NC(=O)[C@H](CC(=O)O)NC(=O)[C@H](Cc2ccc(C(=O)O)cc2)NC(=O)[C@H](Cc2ccc(OCC(=O)O)cc2)NC(=O)CSC[C@@H](C(=O)N[C@@H](CCN)C(=O)NCCOCCOCC(=O)NCCCCCCCCCCC(=O)O)NC(=O)[C@H](CO)NC(=O)[C@H](C(C)C)NC(=O)[C@H](CC2CCCCC2)NC(=O)[C@H](CCN)NC(=O)[C@@H](CC(C)C)NC(=O)[C@H](C)N(C)C1=O [Example 1077] ({CH2CO}-Y(Carboxymethyl)[Phe(4-COOH)]DWL[Bip]I[NMeA][dL][Dab][Cha]VSC[Dab][AEEA][Aun]-OH; thioether N-14) | 18.3
